Source: patent US11584760B2, “Dithio ETP derivatives” (priority 2016, dated 2023)

What was measured:
[1] = test system: DU145 (human prostate cancer); assay: in vitro cytotoxicity against DU145 cancer cell line; type: cell-based; conditions: DU145 cells; for in vitro cytotoxicity (activity against the cancer cell line): data shown in FIG. 2
Method: (§1) FIGS. 2A and 2B. In vitro cytotoxicity against two invasive cancer cell lines, DU145 (human prostate cancer) and A2058 (human melanoma) were determined for different analogs.
(§2) Four examples of compounds of structure II with R═—C(O)R or —C(O)OR′ were prepared as depicted in FIG. 2 and their in vitro cytotoxicity against two invasive cancer cell lines, DU145 (human prostate cancer) and A2058 (human melanoma) were determined.

A2058 (human melanoma) = assay: in vitro cytotoxicity against A2058 cancer cell line; type: cell-based; conditions: A2058 cells; for in vitro cytotoxicity (activity against the cancer cell line): data shown in FIG. 2
Method: as §1, §2

[2] = test system: Hut 78 cells (cutaneous T-cell lymphoma, CTCL); assay: CTCL tumor model: Hut 78 cells injected subcutaneously into NSG mice; type: in vivo; conditions: 20 mg/kg orally (gavage), 3 consecutive days/week; treatment started at tumor size approx. 200 mm^3; vs vehicle
Method: NSG (NOD. Cg-Prkdcscid II2rgtm1Wjl/SzJ) mice (5 to 7 weeks of age) were obtained from an-animal in-house breeding facility. The facility mice stock derived from mice obtained from Jackson Laboratory. All animal experiments were conducted in accordance with protocol approved by the City of Hope Beckman Research Institute IACUC.
CTCL tumor model: 3 million of Hut 78 cells in 100 μl (cells in PBS:Matrigel=1:1) injected subcutaneously.
The compound stock of 60 mg/ml was made in DMSO and diluted to 2 mg/ml in 30% Solutol. The compound was administered orally (by gavage) at 10 μl per gram of mice body weight in a dose of 20 mg/kg for 3 consecutive days/week.
100 μl of 3×10^6 Hut78 cells were injected subcutaneously into mice left flanks. The treatments were initiated when the tumor size reached approximately 200 mm^3. The compound or the vehicle alone were administered for 3 consecutive days/week.

| Structure (SMILES) | activity compared with the corresponding ETP structure I (p=2) ([1]; FIG. 2) | in vitro cytotoxicity (activity against the cancer cell line) [1] | activity compared with the corresponding ETP structure I (p=2) (A2058 (human melanoma); FIG. 2) | in vitro cytotoxicity (activity against the cancer cell line) (A2058 (human melanoma)) | inhibition of the tumor size [2] [%] |
| --- | --- | --- | --- | --- | --- |
| CC(=O)S[C@@]1(C)C(=O)N2[C@@H](c3ccc4c(c3)OCO4)[C@@](C)(C#N)C[C@]2(SC(C)=O)C(=O)N1C (relative stereo) [LEO-16-1833, Rel-S, S′-((3S,6S,7S,8aS)-6-(benzo[d][1,3]dioxol-5-yl)-7-cyano-2,3,7-trimethyl-1,4-dioxohexahydropyrrolo[1,2-c]pyrazine-3,8a(6H)-diyl) diethanethioate] | nearly identical | good activity | nearly identical | good activity |  |
| CN1C(=O)[C@@]2(SC(=O)Cc3ccccc3)C[C@](C)(C#N)[C@H](c3ccc4c(c3)OCO4)N2C(=O)[C@]1(C)SC(=O)Cc1ccccc1 (relative stereo) [LEO-16-1835] |  | good activity |  | good activity |  |
| CN1C(=O)[C@@]2(SC(=O)c3ccccc3)C[C@](C)(C#N)[C@H](c3ccc4c(c3)OCO4)N2C(=O)[C@]1(C)SC(=O)c1ccccc1 (relative stereo) [LEO-16-1836] |  | good activity |  | good activity |  |
| CC(=O)S[C@@]1(C)C(=O)N2[C@@H](c3ccc4c(c3)OCO4)[C@@](C)(C#N)C[C@]2(SC(C)=O)C(=O)N1C [LEO-16-1845, S,S′-((3S,6S,7S,8aS)-6-(benzo[d][1,3]dioxol-5-yl)-7-cyano-2,3,7-trimethyl-1,4-dioxohexahydropyrrolo[1,2-c]pyrazine-3,8a(6H)-diyl) diethanethioate] |  |  |  |  | 86.5 |
